These are literature values, as cited in patent US12239625B2, “Modified release gamma-hydroxybutyrate formulations having improved pharmacokinetics” (Flamel Ireland Limited, priority 2016, dated 2025).

SMILES strings stand for the structures. Read-outs that look alike come from different tables or passages of the source.

Series [1] concerns plasma proteins. The conditions noted are these: GHB concentrations 3 mcg/mL to 300 mcg/mL.
Series [2] has as its system mouse. The conditions noted are these: 2-year study.
The subject of series [3] is rat. Conditions: 2-year study.
The target of series [4] is T1, CYP1A2 (Homo sapiens, UniProt P05177).
T1 sequence (P05177 1-516): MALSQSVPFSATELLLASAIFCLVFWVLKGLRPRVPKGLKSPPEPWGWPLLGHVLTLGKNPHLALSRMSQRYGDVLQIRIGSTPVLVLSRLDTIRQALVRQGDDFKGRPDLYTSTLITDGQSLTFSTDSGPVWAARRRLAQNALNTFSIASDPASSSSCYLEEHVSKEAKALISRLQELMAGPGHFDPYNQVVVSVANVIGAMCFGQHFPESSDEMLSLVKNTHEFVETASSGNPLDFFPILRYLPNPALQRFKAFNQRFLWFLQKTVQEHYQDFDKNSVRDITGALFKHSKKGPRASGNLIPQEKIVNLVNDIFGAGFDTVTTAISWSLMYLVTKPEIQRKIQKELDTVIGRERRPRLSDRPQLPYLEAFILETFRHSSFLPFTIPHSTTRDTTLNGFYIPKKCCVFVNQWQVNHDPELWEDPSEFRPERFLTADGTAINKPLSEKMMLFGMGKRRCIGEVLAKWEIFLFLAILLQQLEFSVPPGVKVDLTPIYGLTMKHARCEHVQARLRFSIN
Conditions: up to 3 mM (378 mcg/mL).

The target of series [5] is CYP2C9 (Homo sapiens, UniProt P11712). The conditions noted are these: up to 3 mM (378 mcg/mL).
Sequence of CYP2C9 (P11712 whole entry): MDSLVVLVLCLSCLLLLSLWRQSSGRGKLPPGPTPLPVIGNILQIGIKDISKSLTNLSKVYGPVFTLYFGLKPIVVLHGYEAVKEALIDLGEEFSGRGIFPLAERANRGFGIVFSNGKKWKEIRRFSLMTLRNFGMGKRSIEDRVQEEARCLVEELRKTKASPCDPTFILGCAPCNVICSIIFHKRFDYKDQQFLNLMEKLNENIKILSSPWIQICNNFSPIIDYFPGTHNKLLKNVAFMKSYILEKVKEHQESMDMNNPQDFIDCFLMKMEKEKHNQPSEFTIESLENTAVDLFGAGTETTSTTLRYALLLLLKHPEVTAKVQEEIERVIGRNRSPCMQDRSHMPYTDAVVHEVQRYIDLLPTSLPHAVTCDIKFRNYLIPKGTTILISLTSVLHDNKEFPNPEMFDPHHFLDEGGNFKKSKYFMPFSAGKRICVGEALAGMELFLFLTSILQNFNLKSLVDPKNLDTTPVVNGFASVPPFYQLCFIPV
Series [6] has as its target CYP2D6 (Homo sapiens, UniProt P10635). Conditions: up to 3 mM (378 mcg/mL).
The conditions of series [7]: single oral dose 25 mg/kg.
Series [8] concerns bacterial gene mutation. Conditions: in vitro.
Series [9] concerns the target CYP2E1 (Homo sapiens, UniProt P05181). Conditions: up to 3 mM (378 mcg/mL).
The conditions of series [10]: 6 g per day as two 3 g doses; ibuprofen 800 mg four times per day.
Series [11] has as its system rats.
For series [12], the system named is mammalian cells. Conditions: in vitro.
Series [13] concerns rat. Conditions: in vivo.
Series [14] relates to rats. This is another data set of the same source.
Series [15] has as its system male and female rats. Conditions: oral 150, 350, or 1,000 mg/kg/day prior to and throughout mating.
Series [16] deals with pregnant rats.
Series [17] deals with CYP3A. Conditions: up to 3 mM (378 mcg/mL).
Series [18] relates to pregnant rabbits.
Series [19] deals with CYP2C19 (Homo sapiens, UniProt P33261). The conditions noted are these: up to 3 mM (378 mcg/mL).
Sequence of CYP2C19 (P33261 whole entry): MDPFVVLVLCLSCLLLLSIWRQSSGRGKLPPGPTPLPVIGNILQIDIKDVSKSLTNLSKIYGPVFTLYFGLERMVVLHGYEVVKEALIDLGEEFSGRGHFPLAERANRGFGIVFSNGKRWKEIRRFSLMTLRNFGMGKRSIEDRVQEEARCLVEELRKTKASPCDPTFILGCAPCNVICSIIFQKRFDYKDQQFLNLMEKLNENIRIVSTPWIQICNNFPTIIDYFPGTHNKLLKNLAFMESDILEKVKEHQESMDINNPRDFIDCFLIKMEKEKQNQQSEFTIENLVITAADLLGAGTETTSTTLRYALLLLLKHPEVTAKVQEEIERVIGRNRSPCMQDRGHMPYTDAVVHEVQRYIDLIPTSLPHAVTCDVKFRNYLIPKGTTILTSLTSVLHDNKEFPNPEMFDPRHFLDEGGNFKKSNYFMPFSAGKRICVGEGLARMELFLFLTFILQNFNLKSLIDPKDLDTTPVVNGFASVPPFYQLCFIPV
Series [20] concerns patients with narcolepsy. The conditions noted are these: estimated dose of 150 g.

Sequence of CYP2E1 (P05181 whole entry): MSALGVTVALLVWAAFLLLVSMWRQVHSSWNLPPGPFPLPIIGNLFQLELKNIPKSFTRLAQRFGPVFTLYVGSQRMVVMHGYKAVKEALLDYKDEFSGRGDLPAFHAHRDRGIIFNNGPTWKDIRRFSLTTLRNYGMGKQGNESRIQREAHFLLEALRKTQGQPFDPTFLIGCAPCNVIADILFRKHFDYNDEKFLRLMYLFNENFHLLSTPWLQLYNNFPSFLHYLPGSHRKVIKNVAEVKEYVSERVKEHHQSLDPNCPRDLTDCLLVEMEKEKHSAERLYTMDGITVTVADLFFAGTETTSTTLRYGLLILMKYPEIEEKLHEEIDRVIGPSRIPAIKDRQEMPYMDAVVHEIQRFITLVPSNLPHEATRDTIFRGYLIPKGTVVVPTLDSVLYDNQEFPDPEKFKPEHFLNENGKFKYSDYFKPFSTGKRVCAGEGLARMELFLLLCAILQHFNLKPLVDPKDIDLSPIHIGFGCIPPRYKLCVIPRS
Sequence of CYP2D6 (P10635 whole entry): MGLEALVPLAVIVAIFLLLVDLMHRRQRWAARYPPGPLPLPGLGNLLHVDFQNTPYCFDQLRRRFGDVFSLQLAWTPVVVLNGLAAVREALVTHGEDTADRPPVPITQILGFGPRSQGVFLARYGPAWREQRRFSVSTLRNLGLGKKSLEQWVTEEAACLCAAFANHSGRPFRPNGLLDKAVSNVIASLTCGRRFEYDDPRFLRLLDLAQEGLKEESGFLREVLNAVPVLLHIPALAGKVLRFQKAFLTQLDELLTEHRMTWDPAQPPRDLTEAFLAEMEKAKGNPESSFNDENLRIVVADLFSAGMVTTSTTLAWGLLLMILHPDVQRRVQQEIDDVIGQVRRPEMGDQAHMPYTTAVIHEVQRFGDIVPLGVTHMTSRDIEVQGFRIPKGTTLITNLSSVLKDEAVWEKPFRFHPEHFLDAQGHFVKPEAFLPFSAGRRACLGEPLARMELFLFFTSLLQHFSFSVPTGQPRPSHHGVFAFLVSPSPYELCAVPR

On to `O=C(O)CCCO` [GHB, gamma-hydroxybutyrate], for which, for the setting “after oral administration of sodium oxybate”, the “Excretion in human milk” value is given as “excreted in human milk”. Further, under “human, in vivo”, the “Apparent volume of distribution” value is 0.19 to 0.384 L/kg and the Elimination half-life was 30 to 60 min. The “Unchanged drug in human urine” value (within 6 to 8 hours after dosing) is recorded as “less than 5%”. In series [1], the “Bound to plasma proteins” value is listed as “less than 1%”.
Turning to `O=C1CCCO1` [gamma-butyrolactone], the Carcinogenic activity entry in [2] and in series [3] was “no clear evidence of carcinogenic activity” throughout.
On to `O=C([O-])CCCO.[Na+]` [sodium oxybate, sodium 4-hydroxybutyrate], for which, in series [4], the “Inhibition of CYP1A2 activity” value is “does not significantly inhibit”. In addition, the “Inhibition of CYP2C9 activity” value in series [5] is listed as “does not significantly inhibit”. In addition, the “Inhibition of CYP2D6 activity” value in series [6] is listed as “does not significantly inhibit”. Moreover, the results for the Mean elimination half-life in series [7] (Class A), in [7] (Class C) and in series [7] (control patients) were 32 min, 59 min and 22 min, respectively. For the same compound, the Bacterial gene mutation entry in series [8] is on record as “negative”. For the same compound, the “Inhibition of CYP2E1 activity” value in series [9] was “does not significantly inhibit”. Moreover, under “18 female and 18 male healthy adults, oral dose 4.5 g”, the “Gender differences in the pharmacokinetics of GHB” value is “no gender differences”. In addition, in series [10], the “Systemic exposure to GHB on co-administration with ibuprofen” value is “comparable systemic exposure to GHB”. Also, the Tumors result in [11] (oral doses up to 1,000 mg/kg/day for 83 (males) or 104 (females) weeks) is given as “no increase in tumors”. Also, the “Plasma exposure (AUC) at the highest dose tested as multiple of that in humans at the MRHD” value in series [11] (rats) was 2 times. Besides, the Chromosomal aberration entry in [12] is “negative”. In addition, the Micronucleus entry in series [13] is “negative”. In addition, in [14] (at the highest dose tested (900 mg/kg/day)), the “Body weight gain and sexual maturation” value is “Reduced body weight gain in males and females and delayed sexual maturation in males”. Further, in series [14] (oral 0, 100, 300, or 900 mg/kg/day, postnatal days 21 through 90), the Mortality entry is “mortality was observed at the two highest closes tested”. In addition, the Effects on fertility entry in series [15] was “no adverse effects on fertility”. Besides, the Developmental toxicity entry in series [16] (oral 150, 350, or 1,000 mg/kg/day throughout organogenesis) is “no clear evidence of developmental toxicity”; in series [18] (oral 300, 600, or 1,200 mg/kg/day throughout organogenesis) it was “no clear evidence of developmental toxicity”. The “Highest dose tested as multiple of the MRHD (9 g per night) on mg/m2 basis” value in [16] (rats) is recorded as “approximately 1 times”; in series [18] (rabbits), approximately 3 times. Besides, the “Inhibition of CYP3A activity” value in series [17] is “does not significantly inhibit”. For the same compound, the “Inhibition of CYP2C19 activity” value in [19] is “does not significantly inhibit”. The Overdose case entry in series [20] is reported as “unresponsive with brief periods of apnea”.
